# Assay results as given in patent US20090258949A1, “AMORPHOUS FORM OF CINACALCET” (priority 2006, published 2009).
# Counter-ions that a name gives are not always drawn.
# Test: Stress stability of amorphous Cinacalcet Hydrochloride, assay by HPLC
# Type: physicochemical
# Settings: stressed in a closed vial at 60° C. for 24 hours
# Experimental: A sample of amorphous Cinacalcet Hydrochloride from Example 1 was stressed in a closed vial at 60° C. for 24 hours. […] Vol 7 μm; temperature 40° C. sample preparation: approximately 10 mg of sample dissolved in 25 ml of eluent B gradient: [table] Area %/mg of starting material and stressed sample were compared
structure (smiles),measurement,value
C[C@@H](NCCCc1cccc(C(F)(F)F)c1)c1cccc2ccccc12 [N-[1-(R)-(−)-(1-naphthyl)ethyl]-3-[3-(trifluoromethyl)phenyl]-1-aminopropane hydrochloride],decrease in assay measured by HPLC (area %/mg of starting material and stressed sample compared),No decrease in assay
